Data set [1] in a line: Stability (half-life) in acidic aqueous solution, pH 3 phosphate buffer at 70° C.
Data set [2] can be described thus: Sensory evaluation: degree of sweetness relative to sucrose. The conditions noted are these: times that of 4% sucrose solution.
The conditions of data set [3]: pH 3.

Like-named read-outs stand apart in the source and are kept apart here. Residues, ends and D or L forms follow the SMILES beside them.

As for `COC(=O)[C@](C)(Cc1ccc(O)cc1)NC(=O)[C@H](CC(=O)O)NCCC(C)(C)C` [Example 2, N-3,3-dimethylbutyl-α-L-aspartyl-α-methyl-L-tyrosine methyl ester], the “Stability (half-life, time corresponding to 50% degradation)” value in data set [1] is 14.5 days; in data set [1] (listed as N-3,3-dimethylbutyl-α-L-aspartyl-α-methyl-L-tyrosine methyl. ester), “about 347 hours”. Further, the entries for the “Degree of sweetness (relative to sugar)” value in data set [2] and in data set [2] (listed as N-3,3-dimethylbutyl-α-L-aspartyl-α-methyl-L-tyrosine methyl ester) were 700 times and “about 700 times”, respectively.
As for `COC(=O)[C@H](Cc1ccccc1)NC(=O)[C@@H](N)CC(=O)O` [aspartame] (H-Asp-Phe-OMe), in data set [3], the “Stability (half-life, time corresponding to 50% degradation)” value is given as “about 24 hours”.

These data come from US5968581A, “Dipeptide derivatives and sweetening agents” (Ajinomoto Co., Inc., priority 1997, dated 1999).
